ChEMBL document CHEMBL2429768, “Eco-friendly synthesis and antimicrobial activities of substituted-5-(1H-indol-3-yl)methylene)-2,2-dimethyl-1,3-dioxane-4,6-dione derivatives” (2013)
≈ marks a conversion by molar mass, not a printed value. Each block holds one molecule with its values, some of them ahead of it.

Tests used:
Type in all cases: functional
[1] = system: Aspergillus niger; assay: Antifungal activity against Aspergillus niger at 50 ug/ml after 72 hrs by agar well diffusion method; details: read-out: DIZ
[2] = system: Fusarium oxysporum; assay: Antifungal activity against Fusarium oxysporum at 500 ug/ml after 72 hrs by agar well diffusion method; details: read-out: DIZ
[3] = system: Fusarium oxysporum; assay: Antifungal activity against Fusarium oxysporum at 300 ug/ml after 72 hrs by agar well diffusion method; details: read-out: DIZ
[4] = system: Fusarium oxysporum; assay: Antifungal activity against Fusarium oxysporum at 200 ug/ml after 72 hrs by agar well diffusion method; details: read-out: DIZ
[5] = system: Fusarium oxysporum; assay: Antifungal activity against Fusarium oxysporum at 100 ug/ml after 72 hrs by agar well diffusion method; details: read-out: DIZ
[6] = system: Fusarium oxysporum; assay: Antifungal activity against Fusarium oxysporum at 50 ug/ml after 72 hrs by agar well diffusion method; details: read-out: DIZ
[7] = system: Rhizoctonia solani; assay: Antifungal activity against Rhizoctonia solani at 500 ug/ml after 72 hrs by agar well diffusion method; details: read-out: DIZ
[8] = system: Rhizoctonia solani; assay: Antifungal activity against Rhizoctonia solani at 300 ug/ml after 72 hrs by agar well diffusion method; details: read-out: DIZ
[9] = system: Rhizoctonia solani; assay: Antifungal activity against Rhizoctonia solani at 200 ug/ml after 72 hrs by agar well diffusion method; details: read-out: DIZ
[10] = system: Rhizoctonia solani; assay: Antifungal activity against Rhizoctonia solani at 100 ug/ml after 72 hrs by agar well diffusion method; details: read-out: DIZ
[11] = system: Rhizoctonia solani; assay: Antifungal activity against Rhizoctonia solani at 50 ug/ml after 72 hrs by agar well diffusion method; details: read-out: DIZ
[12] = system: Bacillus subtilis; assay: Antibacterial activity against Bacillus subtilis at 500 ug/ml after 24 hrs by agar well diffusion method; details: read-out: DIZ
[13] = system: Bacillus subtilis; assay: Antibacterial activity against Bacillus subtilis at 300 ug/ml after 24 hrs by agar well diffusion method; details: read-out: DIZ
[14] = system: Bacillus subtilis; assay: Antibacterial activity against Bacillus subtilis at 200 ug/ml after 24 hrs by agar well diffusion method; details: read-out: DIZ
[15] = system: Bacillus subtilis; assay: Antibacterial activity against Bacillus subtilis at 100 ug/ml after 24 hrs by agar well diffusion method; details: read-out: DIZ
[16] = system: Bacillus subtilis; assay: Antibacterial activity against Bacillus subtilis at 50 ug/ml after 24 hrs by agar well diffusion method; details: read-out: DIZ
[17] = system: Staphylococcus aureus; assay: Antibacterial activity against Staphylococcus aureus ATCC 6538 at 500 ug/ml after 24 hrs by agar well diffusion method; details: ATCC 6538, 24 h, read-out: DIZ
[18] = system: Staphylococcus aureus; assay: Antibacterial activity against Staphylococcus aureus ATCC 6538 at 300 ug/ml after 24 hrs by agar well diffusion method; details: ATCC 6538, 24 h, read-out: DIZ
[19] = system: Staphylococcus aureus; assay: Antibacterial activity against Staphylococcus aureus ATCC 6538 at 200 ug/ml after 24 hrs by agar well diffusion method; details: ATCC 6538, 24 h, read-out: DIZ
[20] = system: Staphylococcus aureus; assay: Antibacterial activity against Staphylococcus aureus ATCC 6538 at 100 ug/ml after 24 hrs by agar well diffusion method; details: ATCC 6538, 24 h, read-out: DIZ
[21] = system: Escherichia coli; assay: Antibacterial activity against Escherichia coli ATCC 8739 at 300 ug/ml after 24 hrs by agar well diffusion method; details: ATCC 8739, 24 h, read-out: DIZ
[22] = system: Escherichia coli; assay: Antibacterial activity against Escherichia coli ATCC 8739 at 200 ug/ml after 24 hrs by agar well diffusion method; details: ATCC 8739, 24 h, read-out: DIZ
[23] = system: Escherichia coli; assay: Antibacterial activity against Escherichia coli ATCC 8739 at 100 ug/ml after 24 hrs by agar well diffusion method; details: ATCC 8739, 24 h, read-out: DIZ
[24] = system: Escherichia coli; assay: Antibacterial activity against Escherichia coli ATCC 8739 at 50 ug/ml after 24 hrs by agar well diffusion method; details: ATCC 8739, 24 h, read-out: DIZ
[25] = system: Klebsiella pneumoniae; assay: Antibacterial activity against Klebsiella pneumoniae at 500 ug/ml after 24 hrs by agar well diffusion method; details: read-out: DIZ
[26] = system: Klebsiella pneumoniae; assay: Antibacterial activity against Klebsiella pneumoniae at 300 ug/ml after 24 hrs by agar well diffusion method; details: read-out: DIZ
[27] = system: Klebsiella pneumoniae; assay: Antibacterial activity against Klebsiella pneumoniae at 200 ug/ml after 24 hrs by agar well diffusion method; details: read-out: DIZ
[28] = system: Klebsiella pneumoniae; assay: Antibacterial activity against Klebsiella pneumoniae at 50 ug/ml after 24 hrs by agar well diffusion method; details: read-out: DIZ
[29] = system: Escherichia coli; assay: Antibacterial activity against Escherichia coli ATCC 8739 at 500 ug/ml after 24 hrs by agar well diffusion method; details: ATCC 8739, 24 h, read-out: DIZ
[30] = system: Klebsiella pneumoniae; assay: Antibacterial activity against Klebsiella pneumoniae at 100 ug/ml after 24 hrs by agar well diffusion method; details: read-out: DIZ
[31] = system: Staphylococcus aureus; assay: Antibacterial activity against Staphylococcus aureus ATCC 6538 at 50 ug/ml after 24 hrs by agar well diffusion method; details: ATCC 6538, 24 h, read-out: DIZ
[32] = system: Aspergillus flavus; assay: Antifungal activity against Aspergillus flavus at 50 ug/ml after 72 hrs by agar well diffusion method; details: read-out: DIZ
[33] = system: Aspergillus flavus; assay: Antifungal activity against Aspergillus flavus at 100 ug/ml after 72 hrs by agar well diffusion method; details: read-out: DIZ
[34] = system: Aspergillus flavus; assay: Antifungal activity against Aspergillus flavus after 72 hrs by agar well diffusion method
[35] = system: Aspergillus niger; assay: Antifungal activity against Aspergillus niger after 72 hrs by agar well diffusion method
[36] = system: Fusarium oxysporum; assay: Antifungal activity against Fusarium oxysporum after 72 hrs by agar well diffusion method
[37] = system: Rhizoctonia solani; assay: Antifungal activity against Rhizoctonia solani after 72 hrs by agar well diffusion method
[38] = system: Bacillus subtilis; assay: Antibacterial activity against Bacillus subtilis after 24 hrs by agar well diffusion method
[39] = system: Staphylococcus aureus; assay: Antibacterial activity against Staphylococcus aureus ATCC 6538 after 24 hrs by agar well diffusion method; details: ATCC 6538, 24 h
[40] = system: Escherichia coli; assay: Antibacterial activity against Escherichia coli ATCC 8739 after 24 hrs by agar well diffusion method; details: ATCC 8739, 24 h
[41] = system: Klebsiella pneumoniae; assay: Antibacterial activity against Klebsiella pneumoniae after 24 hrs by agar well diffusion method
[42] = system: Aspergillus flavus; assay: Antifungal activity against Aspergillus flavus at 500 ug/ml after 72 hrs by agar well diffusion method; details: read-out: DIZ
[43] = system: Aspergillus flavus; assay: Antifungal activity against Aspergillus flavus at 300 ug/ml after 72 hrs by agar well diffusion method; details: read-out: DIZ
[44] = system: Aspergillus flavus; assay: Antifungal activity against Aspergillus flavus at 200 ug/ml after 72 hrs by agar well diffusion method; details: read-out: DIZ
[45] = system: Aspergillus niger; assay: Antifungal activity against Aspergillus niger at 500 ug/ml after 72 hrs by agar well diffusion method; details: read-out: DIZ
[46] = system: Aspergillus niger; assay: Antifungal activity against Aspergillus niger at 300 ug/ml after 72 hrs by agar well diffusion method; details: read-out: DIZ
[47] = system: Aspergillus niger; assay: Antifungal activity against Aspergillus niger at 200 ug/ml after 72 hrs by agar well diffusion method; details: read-out: DIZ
[48] = system: Aspergillus niger; assay: Antifungal activity against Aspergillus niger at 100 ug/ml after 72 hrs by agar well diffusion method; details: read-out: DIZ

- MIC [34]: 40 µg/mL (≈ 127 µM)
- MIC [35]: 40 µg/mL (≈ 127 µM)
- MIC [36]: 35 µg/mL (≈ 111 µM)
- MIC [37]: 35 µg/mL (≈ 111 µM)
- MIC [38]: 30 µg/mL (≈ 95.1 µM)
- MIC [39]: 25 µg/mL (≈ 79.3 µM)
- MIC [40]: 15 µg/mL (≈ 47.6 µM)
- MIC [41]: 15 µg/mL (≈ 47.6 µM)
SMILES: COc1ccc2c(c1)c(C=C1C(=O)OC(C)(C)OC1=O)cn2C
- zone of inhibition at 50 µg/mL [1]: 6 mm
- zone of inhibition at 500 µg/mL [2]: 29 mm
- zone of inhibition at 300 µg/mL [3]: 21 mm
- zone of inhibition at 200 µg/mL [4]: 16 mm
- zone of inhibition at 100 µg/mL [5]: 12 mm
- zone of inhibition at 50 µg/mL [6]: 7 mm
- zone of inhibition at 500 µg/mL [7]: 29 mm
- zone of inhibition at 300 µg/mL [8]: 21 mm
- zone of inhibition at 200 µg/mL [9]: 16 mm
- zone of inhibition at 100 µg/mL [10]: 12 mm
- zone of inhibition at 50 µg/mL [11]: 7 mm
- zone of inhibition at 500 µg/mL [12]: 22 mm
- zone of inhibition at 300 µg/mL [13]: 14 mm
- zone of inhibition at 200 µg/mL [14]: 11 mm
- zone of inhibition at 100 µg/mL [15]: 9 mm
- zone of inhibition at 50 µg/mL [16]: 4 mm
- zone of inhibition at 500 µg/mL [17]: 26 mm
- zone of inhibition at 300 µg/mL [18]: 16 mm
- zone of inhibition at 200 µg/mL [19]: 13 mm
- zone of inhibition at 100 µg/mL [20]: 10 mm
- zone of inhibition at 300 µg/mL [21]: 20 mm
- zone of inhibition at 200 µg/mL [22]: 15 mm
- zone of inhibition at 100 µg/mL [23]: 13 mm
- zone of inhibition at 50 µg/mL [24]: 8 mm
- zone of inhibition at 500 µg/mL [25]: 32 mm
- zone of inhibition at 300 µg/mL [26]: 23 mm
- zone of inhibition at 200 µg/mL [27]: 18 mm
- zone of inhibition at 50 µg/mL [28]: 9 mm
- zone of inhibition at 500 µg/mL [29]: 31 mm
- zone of inhibition at 100 µg/mL [30]: 14 mm
- zone of inhibition at 50 µg/mL [31]: 6 mm
- zone of inhibition at 50 µg/mL [32]: 4 mm
- zone of inhibition at 100 µg/mL [33]: 9 mm
- zone of inhibition at 500 µg/mL [42]: 23 mm
- zone of inhibition at 300 µg/mL [43]: 15 mm
- zone of inhibition at 200 µg/mL [44]: 12 mm
- zone of inhibition at 500 µg/mL [45]: 25 mm
- zone of inhibition at 300 µg/mL [46]: 18 mm
- zone of inhibition at 200 µg/mL [47]: 14 mm
- zone of inhibition at 100 µg/mL [48]: 10 mm

- MIC [34]: 35 µg/mL (≈ 111 µM)
- MIC [35]: 30 µg/mL (≈ 94.9 µM)
- MIC [36]: 25 µg/mL (≈ 79 µM)
- MIC [37]: 25 µg/mL (≈ 79 µM)
- MIC [38]: 20 µg/mL (≈ 63.2 µM)
- MIC [39]: 20 µg/mL (≈ 63.2 µM)
- MIC [40]: 10 µg/mL (≈ 31.6 µM)
- MIC [41]: 10 µg/mL (≈ 31.6 µM)
SMILES: CC1(C)OC(=O)C(=Cc2c[nH]c3ccc([N+](=O)[O-])cc23)C(=O)O1
- zone of inhibition at 50 µg/mL [1]: 7 mm
- zone of inhibition at 500 µg/mL [2]: 31 mm
- zone of inhibition at 300 µg/mL [3]: 21 mm
- zone of inhibition at 200 µg/mL [4]: 17 mm
- zone of inhibition at 100 µg/mL [5]: 14 mm
- zone of inhibition at 50 µg/mL [6]: 10 mm
- zone of inhibition at 500 µg/mL [7]: 32 mm
- zone of inhibition at 300 µg/mL [8]: 24 mm
- zone of inhibition at 200 µg/mL [9]: 19 mm
- zone of inhibition at 100 µg/mL [10]: 15 mm
- zone of inhibition at 50 µg/mL [11]: 10 mm
- zone of inhibition at 500 µg/mL [12]: 24 mm
- zone of inhibition at 300 µg/mL [13]: 16 mm
- zone of inhibition at 200 µg/mL [14]: 13 mm
- zone of inhibition at 100 µg/mL [15]: 11 mm
- zone of inhibition at 50 µg/mL [16]: 6 mm
- zone of inhibition at 500 µg/mL [17]: 28 mm
- zone of inhibition at 300 µg/mL [18]: 18 mm
- zone of inhibition at 200 µg/mL [19]: 15 mm
- zone of inhibition at 100 µg/mL [20]: 12 mm
- zone of inhibition at 300 µg/mL [21]: 22 mm
- zone of inhibition at 200 µg/mL [22]: 17 mm
- zone of inhibition at 100 µg/mL [23]: 15 mm
- zone of inhibition at 50 µg/mL [24]: 10 mm
- zone of inhibition at 500 µg/mL [25]: 34 mm
- zone of inhibition at 300 µg/mL [26]: 25 mm
- zone of inhibition at 200 µg/mL [27]: 20 mm
- zone of inhibition at 50 µg/mL [28]: 11 mm
- zone of inhibition at 500 µg/mL [29]: 33 mm
- zone of inhibition at 100 µg/mL [30]: 16 mm
- zone of inhibition at 50 µg/mL [31]: 8 mm
- zone of inhibition at 50 µg/mL [32]: 5 mm
- zone of inhibition at 100 µg/mL [33]: 10 mm
- zone of inhibition at 500 µg/mL [42]: 24 mm
- zone of inhibition at 300 µg/mL [43]: 17 mm
- zone of inhibition at 200 µg/mL [44]: 13 mm
- zone of inhibition at 500 µg/mL [45]: 26 mm
- zone of inhibition at 300 µg/mL [46]: 19 mm
- zone of inhibition at 200 µg/mL [47]: 15 mm
- zone of inhibition at 100 µg/mL [48]: 11 mm
